Tests used:
[1] = test system: transcription factor NF-κB; settings: Non-patent Literature 4 and 5; cited from earlier work
[2] = test system: pulmonary artery smooth muscle cells; settings: Non-patent Literature 5; cited from earlier work
[3] = test system: pulmonary artery smooth muscles derived from patients with pulmonary arterial hypertension; assay: MTT assay of cell proliferation of pulmonary artery smooth muscle cells from patients; format: cell-based, human; settings: for suppressive effect on proliferation of pulmonary artery smooth muscle cells: final concentration 5 μM, same method as Example 1, data not shown
Text: The preventive or therapeutic agent for pulmonary hypertension of the present invention prevents or treats and ameliorates pulmonary hypertension by at least suppressing excessive proliferation of pulmonary artery smooth muscle cells. Accordingly, the present invention also provides a suppressor for excessive proliferation of pulmonary artery smooth muscle cells containing emetine or a salt thereof. […] However, emetine serving as the active ingredient of the present invention is a compound quite different in structure from IMD-0354 described above. Further, the inventors of the present invention examined N-p-tosyl-L-phenylalanine chloromethyl ketone, caffeic acid phenethyl ester, and Nα-p-tosyl-L-lysine chloromethyl ketone hydrochloride serving as compounds known to have NF-κB-inhibiting actions for their suppressive effects on the proliferation of pulmonary artery smooth muscle cells derived from patients with pulmonary hypertension by the same method as that described in Example 1 to be described later except that each of these compounds was added so that its final concentration was 5 μM. […] Also from such viewpoints, the suppressive effect of emetine on excessive proliferation of pulmonary artery smooth muscle cells and the preventive or therapeutic effect of emetine on pulmonary hypertension in the present invention are unpredictable from the related art. The active ingredient, dosage form, dose, and the like of the suppressor for excessive proliferation of pulmonary artery smooth muscle cells are the same as those of the preventive or therapeutic agent for pulmonary hypertension.
Pulmonary artery smooth muscles derived from patients with pulmonary arterial hypertension were treated with 1 nmol/L to 5 μmol/L emetine solutions (the emetine solutions were prepared with distilled water), and were cultured for 0 hours and 48 hours, followed by an MTT assay to assess cell proliferation rates. Specifically, smooth muscle cells were seeded in 96-well plates at 5,000 cells/well, and 24 hours after the seeding, emetine was added so that its final concentrations were adjusted to from 1 nmol/L to 5 μmol/L. The results are shown in FIG. 1.

[4] = test system: monocrotaline-induced pulmonary hypertension model; assay: monocrotaline-induced pulmonary hypertension model; format: in vivo, rats (SD rats); settings: 0.01 mg/kg or 0.05 mg/kg orally daily for 3 weeks after 60 mg/kg monocrotaline s.c.; vs control group; FIG. 2
Description: In vivo tests using pulmonary hypertension animal models were performed on emetine. Specifically, first, the influence of emetine on a monocrotaline-induced pulmonary hypertension model was investigated. A monocrotaline solution used for the production of the pulmonary hypertension model was prepared by dissolving monocrotaline with 1 mol/L hydrochloric acid and then adjusting the pH to 7.4 through titration with 1 mol/L sodium hydroxide using a pH meter. An emetine solution was prepared with distilled water. The monocrotaline-induced pulmonary hypertension model was produced by subcutaneously injecting 6-week-old rats (SD rats, n=13) with 60 mg/kg monocrotaline. After the subcutaneous injection with monocrotaline, the rats were orally administered 0.01 mg/kg or 0.05 mg/kg emetine daily for 3 weeks. A vehicle group was sacrificed 3 weeks after the administration of distilled water to measure right ventricular systolic pressure with Mikro-Tip Catheter transducers 2F (Millar). In addition, after formalin fixation, the right ventricle was removed from the left ventricle to measure a right ventricle/(left ventricle plus septum) weight ratio. Then, the extent of pulmonary hypertension was assessed on the basis of those results.

SU5416/Hypoxia model = assay: SU5416/Hypoxia pulmonary hypertension model; format: in vivo, rats (SD rats); settings: 0.01 mg/kg or 0.05 mg/kg orally daily, week 8 to week 11 after SU5416; vs control group; FIG. 3
Description: In addition, an in vivo test using an SU5416/Hypoxia model was also performed. Specifically, first, an SU5416 (semaxanib) solution used for the production of the model was prepared by dissolving SU5416 using carboxy methyl cellulose (CMC). An emetine solution was prepared in the same manner as described above.
Six-week-old rats (SD rats, n=9) were administered 20 mg/kg SU5416 and then bred in a hypoxic chamber using a hypoxicator to be exposed to hypoxia (oxygen concentration: from 8% to 12%) for 3 weeks and then to normoxia. Then, the rats were orally administered 0.01 mg/kg or 0.05 mg/kg emetine daily for a period from the first day of week 8 after the SU5416 administration to the final day of week 11, and were sacrificed on the final day of week 11. Then, the extent of pulmonary hypertension was assessed in the same manner as in the monocrotaline-induced pulmonary hypertension model.

Which NF-κB inhibition [1] does the source give for O=C(Nc1cc(C(F)(F)F)cc(C(F)(F)F)c1)c1cc(Cl)ccc1O [IMD-0354, N-[3,5-bis(trifluoromethyl)phenyl]-5-chloro-2-hydroxybenzamide] here?
Its NF-κB inhibition is “has an NF-κB-inhibiting action”.

And the “proliferation of pulmonary artery smooth muscle cells” value [2]?
The value was “suppresses the proliferation of pulmonary artery smooth muscle cells”.

For Cc1ccc(S(=O)(=O)N[C@@H](Cc2ccccc2)C(=O)CCl)cc1 [N-p-tosyl-L-phenylalanine chloromethyl ketone], which “suppressive effect on proliferation of pulmonary artery smooth muscle cells” value (“suppressive effect on proliferation” for short) [3] is on record?
The value was “not sufficiently suppressed”.

For Cc1ccc(S(=O)(=O)N[C@@H](CCCCN)C(=O)CCl)cc1.Cl [Nα-p-tosyl-L-lysine chloromethyl ketone hydrochloride], which “suppressive effect on proliferation” value [3] is on record?
The value was “not sufficiently suppressed”.

Which “suppressive effect on proliferation” value [3] does the source give for O=C(/C=C/c1ccc(O)c(O)c1)OCCc1ccccc1 [caffeic acid phenethyl ester] here?
Its value is “not sufficiently suppressed”.

What does the source list for CC[C@H]1CN2CCc3cc(OC)c(OC)cc3[C@@H]2C[C@@H]1C[C@H]1NCCc2cc(OC)c(OC)cc21 [emetine]?
cell proliferation rate (MTT assay) ([3]; emetine 1 nmol/L to 5 μmol/L, cultured 48 hours, FIG. 1): suppressed proliferation of the pulmonary artery smooth muscles derived from patients with pulmonary arterial hypertension in a concentration-dependent manner; right ventricle/(left ventricle plus septum) weight ratio [4]: suppressed; right ventricular systolic pressure [4]: suppressed; right ventricle/(left ventricle plus septum) weight ratio (SU5416/Hypoxia model): alleviated; right ventricular systolic pressure (SU5416/Hypoxia model): alleviated; NF-κB inhibition [1]: known to inhibit a transcription factor NF-κB

— patent US10772882B2, “Pulmonary hypertension preventative or therapeutic agent containing crude drug” (TOHOKU UNIVERSITY, priority 2016, dated 2020)
